# Like-named read-outs stand apart in the source and are kept apart here.
# Assays:
# [1] = test system: H929 multiple myeloma tumour line; experiment: In vitro cytotoxicity, Microculture Tetrazolium Assay; assay type: cell-based; conditions: H929 cells, 48 hours exposure, MTT, read-out: IC50 (μM) MTT H929
# Method: The cytotoxicity studies were carried out on the H929 multiple myeloma tumour line.
# The cells are distributed onto microplates and exposed to the test compounds for 48 hours.
# [2] = target: Mcl-1 protein (UniProtKB primary accession number: Q07820) (Homo sapiens, UniProt Q07820); experiment: Inhibition of Mcl-1 by fluorescence polarisation, Method 1; assay type: binding; conditions: fluorescence polarisation; Method 1, or Method 2; read-out: IC50 (M) Mcl-1 FP
# Mcl-1 protein, sequence (Q07820 whole entry): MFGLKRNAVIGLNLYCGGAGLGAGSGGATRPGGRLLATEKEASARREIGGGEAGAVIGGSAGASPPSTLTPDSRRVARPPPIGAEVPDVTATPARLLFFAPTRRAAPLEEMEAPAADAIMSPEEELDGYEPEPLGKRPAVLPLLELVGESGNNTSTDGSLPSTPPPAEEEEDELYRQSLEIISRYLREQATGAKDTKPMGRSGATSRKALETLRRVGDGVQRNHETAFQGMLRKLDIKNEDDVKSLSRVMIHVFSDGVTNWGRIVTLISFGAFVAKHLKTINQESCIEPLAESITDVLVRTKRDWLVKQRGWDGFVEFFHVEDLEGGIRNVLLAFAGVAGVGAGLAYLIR
# In short: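 Binding was measured as fluorescence polarisation of a fluorescein-labelled ligand (1 nM) displaced from Mcl-1 (5 nM), both final. Compounds ran as 11-point series with final DMSO at 5%.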
SMILES,"IC50 ([1]; Homo sapiens, NCI-H929, 48 h) [µM]",IC50 [2] [M],IC50 [1] [µM]
"CCc1sc2ncnc(OC(Cc3ccccc3OCc3ccnn3CC)C(=O)O)c2c1-c1ccc(OCCN2CCN(C)CC2)c(Cl)c1C [Example 456, (2R)-2-[((5Sa)-5-{3-chloro-2-methyl-4-[2-(4-methylpiperazin-1-yl)ethoxy]phenyl}-6-ethylthieno[2,3-d]pyrimidin-4-yl)oxy]-3-{2-[(1-ethyl-1H-pyrazol-5-yl)methoxy]phenyl}propanoic acid]",0.513,8e-09,–
"CCc1sc2ncnc(OC(Cc3cccc4c3OCO4)C(=O)O)c2c1-c1ccc(OCCN2CCN(C)CC2)c(Cl)c1C [Example 460, (2R)-3-(1,3-benzodioxol-4-yl)-2-[((5Sa)-5-{3-chloro-2-methyl-4-[2-(4-methylpiperazin-1-yl)ethoxy]phenyl}-6-ethylthieno[2,3-d]pyrimidin-4-yl)oxy]propanoic acid]",6.82,1.3e-07,–
"CCc1sc2ncnc(OC(Cc3cccc4ccoc34)C(=O)O)c2c1-c1ccc(OCCN2CCN(C)CC2)c(Cl)c1C [Example 461, (2R)-3-(1-benzofuran-7-yl)-2-[((5Sa)-5-{3-chloro-2-methyl-4-[2-(4-methylpiperazin-1-yl)ethoxy]phenyl}-6-ethylthieno[2,3-d]pyrimidin-4-yl)oxy]propanoic acid]",4.86,8.5e-08,–
"CCc1sc2ncnc(OC(Cc3ccccc3F)C(=O)O)c2c1-c1ccc(OCCN2CCN(C)CC2)c(Cl)c1C [Example 463, (2R)-2-[((5Sa)-5-{3-chloro-2-methyl-4-[2-(4-methylpiperazin-1-yl)ethoxy]phenyl}-6-ethylthieno[2,3-d]pyrimidin-4-yl)oxy]-3-(2-fluorophenyl)propanoic acid]",5.11,4.6e-08,–
"CC#Cc1sc2ncnc(OC(Cc3ccccc3OC)C(=O)O)c2c1-c1ccc(OCCC2CCN(C)CC2)c(Cl)c1C [Example 465, (2R)-2-{[(5Sa)-5-{3-chloro-2-methyl-4-[2-(1-methylpiperidin-4-yl)ethoxy]phenyl}-6-(prop-1-yn-1-yl)thieno[2,3-d]pyrimidin-4-yl]oxy}-3-(2-methoxyphenyl)propanoic acid]",2.06,2.5e-08,–
"CC#Cc1sc2ncnc(OC(Cc3ccccc3OC)C(=O)O)c2c1-c1ccc(OCCN(C(C)C)C(C)C)c(Cl)c1C [Example 466, (2R)-2-{[(5Sa)-5-(3-chloro-4-{2-[di(propan-2-yl)amino]ethoxy}-2-methylphenyl)-6-(prop-1-yn-1-yl)thieno[2,3-d]pyrimidin-4-yl]oxy}-3-(2-methoxyphenyl)propanoic acid]",3.35,3.9e-08,–
"CC#Cc1sc2ncnc(OC(Cc3ccccc3OC)C(=O)O)c2c1-c1ccc(OCCN(C)C)c(Cl)c1C [Example 467, (2R)-2-{[(5Sa)-5-{3-chloro-4-[2-(dimethylamino)ethoxy]-2-methylphenyl}-6-(prop-1-yn-1-yl)thieno[2,3-d]pyrimidin-4-yl]oxy}-3-(2-methoxyphenyl)propanoic acid]",0.502,1.1e-08,–
"CC#Cc1sc2ncnc(OC(Cc3ccccc3OC)C(=O)O)c2c1-c1ccc(OCCN2CCCC2)c(Cl)c1C [Example 468, (2R)-2-{[(5Sa)-5-{3-chloro-2-methyl-4-[2-(pyrrolidin-1-yl)ethoxy]phenyl}-6-(prop-1-yn-1-yl)thieno[2,3-d]pyrimidin-4-yl]oxy}-3-(2-methoxyphenyl)propanoic acid]",2.02,8.6e-09,–
"CC#Cc1sc2ncnc(OC(Cc3ccccc3OC)C(=O)O)c2c1-c1ccc(OCCN2CCCCC2)c(Cl)c1C [Example 469, (2R)-2-{[(5Sa)-5-{3-chloro-2-methyl-4-[2-(piperidin-1-yl)ethoxy]phenyl}-6-(prop-1-yn-1-yl)thieno[2,3-d]pyrimidin-4-yl]oxy}-3-(2-methoxyphenyl)propanoic acid]",3.06,1.5e-08,–
"CC#Cc1sc2ncnc(O[C@H](Cc3ccccc3OC)C(=O)O)c2c1-c1cc(C)c(OCCN2CCN(C)CC2)c(Cl)c1C [Example 475, (2R)-2-{[(5Sa)-5-{3-chloro-2,5-dimethyl-4-[2-(4-methylpiperazin-1-yl)ethoxy]phenyl}-6-(prop-1-yn-1-yl)thieno[2,3-d]pyrimidin-4-yl]oxy}-3-(2-methoxyphenyl)propanoic acid]",–,6.8e-09,1.12
"CC#Cc1sc2ncnc(OC(Cc3ccccc3OC)C(=O)O)c2c1-c1cc(F)c(OCCN2CCN(C)CC2)c(Cl)c1C [Example 476, (2R)-2-{[(5Sa)-5-{3-chloro-5-fluoro-2-methyl-4-[2-(4-methylpiperazin-1-yl)ethoxy]phenyl}-6-(prop-1-yn-1-yl)thieno[2,3-d]pyrimidin-4-yl]oxy}-3-(2-methoxyphenyl)propanoic acid]",1.03,2e-08,–
"CC#Cc1sc2ncnc(OC(Cc3ccccc3OC)C(=O)O)c2c1-c1cc(OC)c(OCCN2CCN(C)CC2)c(Cl)c1C [Example 477, (2R)-2-{[(5Sa)-5-{3-chloro-5-methoxy-2-methyl-4-[2-(4-methylpiperazin-1-yl)ethoxy]phenyl}-6-(prop-1-yn-1-yl)thieno[2,3-d]pyrimidin-4-yl]oxy}-3-(2-methoxyphenyl)propanoic acid]",2.57,5.6e-08,–
"CC#Cc1sc2ncnc(OC(Cc3ccccc3OCC)C(=O)O)c2c1-c1ccc(OCCN2CCN(C)CC2)c(Cl)c1C [Example 481, (2R)-2-{[(5Sa)-5-{3-chloro-2-methyl-4-[2-(4-methylpiperazin-1-yl)ethoxy]phenyl}-6-(prop-1-yn-1-yl)thieno[2,3-d]pyrimidin-4-yl]oxy}-3-(2-ethoxyphenyl)propanoic acid]",0.643,5.4e-09,–
"CC#Cc1sc2ncnc(OC(Cc3ccccc3OCc3ccnc(CCOC)n3)C(=O)O)c2c1-c1ccc(OCCN2CCN(C)CC2)c(Cl)c1C [Example 484, (2R)-2-{[(5Sa)-5-{3-chloro-2-methyl-4-[2-(4-methylpiperazin-1-yl)ethoxy]phenyl}-6-(prop-1-yn-1-yl)thieno[2,3-d]pyrimidin-4-yl]oxy}-3-(2-{[2-(2-methoxyethyl)pyrimidin-4-yl]methoxy}phenyl)propanoic acid]",0.014,3.4e-09,–
"CC#Cc1sc2ncnc(OC(Cc3ccccc3OCc3ccnc(OC)n3)C(=O)O)c2c1-c1ccc(OCCN2CCN(C)CC2)c(Cl)c1C [Example 486, (2R)-2-{[(5Sa)-5-{3-chloro-2-methyl-4-[2-(4-methylpiperazin-1-yl)ethoxy]phenyl}-6-(prop-1-yn-1-yl)thieno[2,3-d]pyrimidin-4-yl]oxy}-3-{2-[(2-methoxypyrimidin-4-yl)methoxy]phenyl}propanoic acid]",0.146,1.9e-09,–
"CC#Cc1sc2ncnc(OC(Cc3cccc4occc34)C(=O)O)c2c1-c1ccc(OCCN2CCN(C)CC2)c(Cl)c1C [Example 492, (2R)-3-(1-benzofuran-4-yl)-2-{[(5Sa)-5-{3-chloro-2-methyl-4-[2-(4-methylpiperazin-1-yl)ethoxy]phenyl}-6-(prop-1-yn-1-yl)thieno[2,3-d]pyrimidin-4-yl]oxy}propanoic acid]",2.19,9e-08,–
"Cc1csc(-c2sc3ncnc(OC(Cc4ccccc4)C(=O)O)c3c2-c2ccc(OCCN3CCN(C)CC3)c(Cl)c2C)c1 [Example 495, (2R)-2-{[(5Sa)-5-{3-chloro-2-methyl-4-[2-(4-methylpiperazin-1-yl)ethoxy]phenyl}-6-(4-methylthiophen-2-yl)thieno[2,3-d]pyrimidin-4-yl]oxy}-3-phenylpropanoic acid]",1.19,3.6e-08,–
"Cc1c(-c2c(-c3cc4ccccc4s3)sc3ncnc(OC(Cc4ccccc4)C(=O)O)c23)ccc(OCCN2CCN(C)CC2)c1Cl [Example 497, (2R)-2-{[6-(1-benzothiophen-2-yl)-(5Sa)-5-{3-chloro-2-methyl-4-[2-(4-methylpiperazin-1-yl)ethoxy]phenyl}thieno[2,3-d]pyrimidin-4-yl]oxy}-3-phenylpropanoic acid]",5.95,9.1e-07,–
"Cc1ccc(-c2sc3ncnc(OC(Cc4ccccc4)C(=O)O)c3c2-c2ccc(OCCN3CCN(C)CC3)c(Cl)c2C)o1 [Example 499, (2R)-2-{[(5Sa)-5-{3-chloro-2-methyl-4-[2-(4-methylpiperazin-1-yl)ethoxy]phenyl}-6-(5-methylfuran-2-yl)thieno[2,3-d]pyrimidin-4-yl]oxy}-3-phenylpropanoic acid]",1.5,1e-07,–
"Cc1ccc(-c2sc3ncnc(O[C@H](Cc4ccccc4)C(=O)O)c3c2-c2ccc(OCCN3CCN(C)CC3)c(Cl)c2C)s1 [Example 500, (2R)-2-{[(5Sa)-5-{3-chloro-2-methyl-4-[2-(4-methylpiperazin-1-yl)ethoxy]phenyl}-6-(5-methylthiophen-2-yl)thieno[2,3-d]pyrimidin-4-yl]oxy}-3-phenylpropanoic acid]",–,8e-08,2.25
"Cc1c(-c2c(-c3ccc(Cl)s3)sc3ncnc(OC(Cc4ccccc4)C(=O)O)c23)ccc(OCCN2CCN(C)CC2)c1Cl [Example 501, (2R)-2-{[(5Sa)-5-{3-chloro-2-methyl-4-[2-(4-methylpiperazin-1-yl)ethoxy]phenyl}-6-(5-chlorothiophen-2-yl)thieno[2,3-d]pyrimidin-4-yl]oxy}-3-phenylpropanoic acid]",2.84,2.8e-07,–
"Cc1c(-c2c(-c3cccn3C)sc3ncnc(OC(Cc4ccccc4)C(=O)O)c23)ccc(OCCN2CCN(C)CC2)c1Cl [Example 503, (2R)-2-{[(5Sa)-5-{3-chloro-2-methyl-4-[2-(4-methylpiperazin-1-yl)ethoxy]phenyl}-6-(1-methyl-1H-pyrrol-2-yl)thieno[2,3-d]pyrimidin-4-yl]oxy}-3-phenylpropanoic acid]",7.02,5e-07,–

# From patent US9670227B2, “Thienopyrimidine derivatives, a process for their preparation and pharmaceutical compositions containing them” (LES LABORATOIRES SERVIER, priority 2013, dated 2017)
